Here are results for eleven compounds from patent publication US20260132140A1, “IMIDAZOLYL-AMINO-PYRAZINE-CARBONITRILS AS CHK-1 INHIBITORS” (BenevolentAI Bio Limited, priority 2022, published 2026).

Structures are written as SMILES. Where two headings read alike, the source gives them in different places.

The target of data set [1] is T1, human Chk1 kinase (Homo sapiens, UniProt O14757).
T1 sequence (O14757 1-476): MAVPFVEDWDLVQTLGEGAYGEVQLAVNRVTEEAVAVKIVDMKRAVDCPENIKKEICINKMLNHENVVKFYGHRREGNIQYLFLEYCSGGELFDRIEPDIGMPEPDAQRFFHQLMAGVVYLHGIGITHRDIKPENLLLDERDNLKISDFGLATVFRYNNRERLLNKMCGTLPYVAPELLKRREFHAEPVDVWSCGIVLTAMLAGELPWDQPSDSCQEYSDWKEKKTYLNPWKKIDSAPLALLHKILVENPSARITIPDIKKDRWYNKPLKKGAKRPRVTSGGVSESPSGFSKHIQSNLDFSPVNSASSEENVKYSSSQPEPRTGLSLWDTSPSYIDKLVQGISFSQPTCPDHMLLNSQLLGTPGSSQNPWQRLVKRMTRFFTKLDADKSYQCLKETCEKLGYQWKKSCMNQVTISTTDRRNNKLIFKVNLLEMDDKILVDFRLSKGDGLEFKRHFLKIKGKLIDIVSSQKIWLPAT
Nature of the data set: biochemical.

Data set [2] deals with T2, human Chk2 kinase (Homo sapiens, UniProt O96017).
The target of data set [3] is T1, human Chk1 kinase. Description: Human Chk1 HTRF (Homogeneous Time Resolved Fluorescence) enzyme assay. The conditions noted are these: 1 nM Chk-1, 30 μM ATP.
For data set [4], the target named is T2, human Chk2 kinase. Nature of the data set: biochemical.
In the next data set the target is T3, RSK1 (Homo sapiens, UniProt Q15418).
T3 construct: purchased Eurofins (KinaseProfiler service)
Description: RSK1-4 kinase assay (Eurofins KinaseProfiler, radiometric): RSK1. In kind it is biochemical. As to conditions: approximately ATP Km. The source says:
(§1) The radiometric kinase activity assays were run at approximately the ATP Km for each kinase and the IC50 data is shown in Table 24.

The next data set deals with T4, RSK2 (Homo sapiens, UniProt P51812).
T4 construct: purchased Eurofins (KinaseProfiler service)
Nature of the data set: RSK1-4 kinase assay (Eurofins KinaseProfiler, radiometric): RSK2. In kind it is biochemical. The conditions noted are these: approximately ATP Km.
Text: as §1

The target in data set [5] is P-glycoprotein (P-gp, MDR1) (Homo sapiens, UniProt P08183). Description: in vitro. The conditions noted are these: dog, MDCK-MDR1, pH 7.4.
A short description of the next data set: in vitro. As to conditions: dog, MDCK, pH 7.4.
The target in another data set is T5, BCRP (Homo sapiens, UniProt Q9UNQ0).
T5 sequence (Q9UNQ0 1-655): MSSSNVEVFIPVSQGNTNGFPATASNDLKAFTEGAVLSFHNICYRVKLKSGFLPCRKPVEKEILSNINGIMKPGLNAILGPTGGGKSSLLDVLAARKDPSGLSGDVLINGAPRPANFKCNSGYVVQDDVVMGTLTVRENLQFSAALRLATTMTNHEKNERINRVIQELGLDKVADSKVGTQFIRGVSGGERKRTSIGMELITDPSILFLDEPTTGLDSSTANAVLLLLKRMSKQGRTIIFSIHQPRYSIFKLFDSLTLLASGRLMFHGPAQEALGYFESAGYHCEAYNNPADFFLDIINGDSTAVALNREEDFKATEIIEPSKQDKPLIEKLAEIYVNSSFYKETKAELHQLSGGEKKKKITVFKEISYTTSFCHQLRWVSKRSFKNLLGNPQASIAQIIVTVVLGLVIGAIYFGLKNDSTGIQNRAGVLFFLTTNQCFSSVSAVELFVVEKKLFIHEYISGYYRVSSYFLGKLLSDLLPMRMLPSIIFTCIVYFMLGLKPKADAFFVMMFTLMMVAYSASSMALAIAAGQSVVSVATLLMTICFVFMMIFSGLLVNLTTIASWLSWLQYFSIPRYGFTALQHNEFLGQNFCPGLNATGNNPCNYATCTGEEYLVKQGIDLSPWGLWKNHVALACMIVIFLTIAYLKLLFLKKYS
Description: in vitro. As to conditions: dog, pH 7.4.

For a further data set, the target named is T6, RSK3 (Homo sapiens, UniProt Q15349).
T6 construct: purchased Eurofins (KinaseProfiler service)
Description: RSK1-4 kinase assay (Eurofins KinaseProfiler, radiometric): RSK3. In kind it is biochemical. The conditions noted are these: approximately ATP Km.
Text: as §1

A further data set concerns the target T7, RSK4 (Homo sapiens, UniProt Q9UK32).
T7 construct: purchased Eurofins (KinaseProfiler service)
Description: RSK1-4 kinase assay (Eurofins KinaseProfiler, radiometric): RSK4. In kind it is biochemical. The conditions noted are these: approximately ATP Km.
Text: as §1

A further data set concerns GBM LN18 cells. Description: In vitro cell viability assay (Cell Titre Glo, 72 hours). The format is cell-based. The conditions noted are these: Homo sapiens, LN-18, read-out: LN18 pIC50 (converted). The essentials: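 LN18 glioblastoma cells were exposed to compound for 72 h in a 10-point concentration series up to 10 μM. Viability was read as cellular ATP by CellTiter-Glo luminescence, and % inhibition was calculated against the vehicle and inhibited control wells on each plate.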

The test system of data set [6] is pChk1(Ser296) in SW620 cells. Nature of the data set: pChk1(Ser296) sandwich ELISA, cell-based on-target kinase activity. The conditions noted are these: Homo sapiens, read-out: SW620 pIC50 (converted). How it is done:
ELISA assays were performed as per the manufacturer's protocol. […] Selected compounds of the invention were tested as a 8-point concentration response up to a maximum concentration of either 1 μM, 3 μM or 10 μM. The percent (%) effect i.e. inhibition at each concentration of compound was calculated based on, and relative to, the amount of inhibition produced in the vehicle control and inhibited control wells contained within each plate.
(ELISA stands for enzyme-linked immunosorbent assay.)

A short description of data set [7]: Determination of CNS penetration in vivo, unbound brain to plasma ratio (Kpuu). As to conditions: male, Sprague Dawley, rat, iv, 1 mg/kg.
For data set [8], the system named is 373 human wild-type kinases. Description: Kinome selectivity, Eurofins KinaseProfiler kinase screen. In kind it is biochemical. The conditions noted are these: panel of 373 human wild-type kinases, approximately ATP Km, top concentration 10 μM. The source says:
The radiometric kinase activity assays were run at approximately the ATP Km for each kinase.

[9] abbreviates: SW-620, neocarzinostatin 7.5 μM, 2 hours.

T3 sequence (Q15418 whole entry): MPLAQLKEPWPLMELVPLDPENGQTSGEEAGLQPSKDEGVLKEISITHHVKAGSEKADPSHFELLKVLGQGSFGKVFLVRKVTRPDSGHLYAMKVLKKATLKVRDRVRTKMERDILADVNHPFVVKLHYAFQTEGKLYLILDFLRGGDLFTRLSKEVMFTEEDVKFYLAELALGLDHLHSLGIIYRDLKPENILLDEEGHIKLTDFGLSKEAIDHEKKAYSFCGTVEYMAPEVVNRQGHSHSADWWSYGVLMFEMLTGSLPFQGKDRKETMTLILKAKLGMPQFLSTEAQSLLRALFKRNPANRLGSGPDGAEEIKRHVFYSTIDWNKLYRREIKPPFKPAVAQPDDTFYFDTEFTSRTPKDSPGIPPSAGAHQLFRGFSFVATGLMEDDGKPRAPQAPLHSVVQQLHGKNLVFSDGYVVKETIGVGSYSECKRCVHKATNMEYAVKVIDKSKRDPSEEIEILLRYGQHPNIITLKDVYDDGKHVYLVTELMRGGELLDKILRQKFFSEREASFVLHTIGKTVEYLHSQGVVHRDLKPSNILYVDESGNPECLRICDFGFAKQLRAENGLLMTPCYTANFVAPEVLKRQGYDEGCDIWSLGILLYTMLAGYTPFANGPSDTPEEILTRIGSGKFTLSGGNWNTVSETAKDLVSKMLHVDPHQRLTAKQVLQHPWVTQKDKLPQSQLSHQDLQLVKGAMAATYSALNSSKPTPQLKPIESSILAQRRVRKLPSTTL
T4 sequence (P51812 whole entry): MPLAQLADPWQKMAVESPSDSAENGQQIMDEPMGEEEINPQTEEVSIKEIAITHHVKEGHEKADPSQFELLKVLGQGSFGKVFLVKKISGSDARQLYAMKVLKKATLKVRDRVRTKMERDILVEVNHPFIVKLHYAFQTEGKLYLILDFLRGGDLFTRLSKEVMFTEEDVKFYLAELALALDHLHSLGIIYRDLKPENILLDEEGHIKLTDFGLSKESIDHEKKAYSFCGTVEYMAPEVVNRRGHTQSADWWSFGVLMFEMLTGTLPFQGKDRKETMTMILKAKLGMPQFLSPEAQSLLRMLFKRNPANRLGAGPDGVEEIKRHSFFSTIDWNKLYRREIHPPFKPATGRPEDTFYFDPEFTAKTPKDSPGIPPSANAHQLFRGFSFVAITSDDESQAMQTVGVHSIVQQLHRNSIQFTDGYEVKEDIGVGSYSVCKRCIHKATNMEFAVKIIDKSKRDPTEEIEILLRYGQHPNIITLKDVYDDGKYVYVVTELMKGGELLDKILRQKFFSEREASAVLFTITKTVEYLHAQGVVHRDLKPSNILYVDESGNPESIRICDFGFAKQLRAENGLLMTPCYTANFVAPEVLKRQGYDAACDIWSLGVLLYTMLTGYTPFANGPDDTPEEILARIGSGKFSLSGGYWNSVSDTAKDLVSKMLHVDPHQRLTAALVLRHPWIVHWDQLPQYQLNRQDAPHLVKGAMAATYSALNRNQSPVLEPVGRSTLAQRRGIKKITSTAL
T6 sequence (Q15349 whole entry): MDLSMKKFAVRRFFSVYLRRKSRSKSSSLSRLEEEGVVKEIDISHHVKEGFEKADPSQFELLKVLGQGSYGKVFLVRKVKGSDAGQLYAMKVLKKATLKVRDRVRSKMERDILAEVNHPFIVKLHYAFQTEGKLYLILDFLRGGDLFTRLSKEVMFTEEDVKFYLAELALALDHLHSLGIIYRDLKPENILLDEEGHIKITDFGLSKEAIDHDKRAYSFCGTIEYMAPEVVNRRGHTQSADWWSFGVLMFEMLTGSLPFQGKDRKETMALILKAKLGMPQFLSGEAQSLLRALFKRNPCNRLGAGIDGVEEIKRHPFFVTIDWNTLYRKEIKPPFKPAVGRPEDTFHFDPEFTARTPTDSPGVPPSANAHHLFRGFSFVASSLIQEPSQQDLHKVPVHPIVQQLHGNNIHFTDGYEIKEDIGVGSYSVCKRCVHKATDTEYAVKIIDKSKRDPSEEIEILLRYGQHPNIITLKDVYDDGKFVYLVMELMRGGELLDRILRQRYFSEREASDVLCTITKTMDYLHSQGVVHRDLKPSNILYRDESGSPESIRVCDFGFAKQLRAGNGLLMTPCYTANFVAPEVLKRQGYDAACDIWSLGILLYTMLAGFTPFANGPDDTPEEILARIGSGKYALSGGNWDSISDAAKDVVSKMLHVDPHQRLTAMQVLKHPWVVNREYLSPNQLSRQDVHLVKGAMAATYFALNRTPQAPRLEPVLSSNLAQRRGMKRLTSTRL
T7 sequence (Q9UK32 whole entry): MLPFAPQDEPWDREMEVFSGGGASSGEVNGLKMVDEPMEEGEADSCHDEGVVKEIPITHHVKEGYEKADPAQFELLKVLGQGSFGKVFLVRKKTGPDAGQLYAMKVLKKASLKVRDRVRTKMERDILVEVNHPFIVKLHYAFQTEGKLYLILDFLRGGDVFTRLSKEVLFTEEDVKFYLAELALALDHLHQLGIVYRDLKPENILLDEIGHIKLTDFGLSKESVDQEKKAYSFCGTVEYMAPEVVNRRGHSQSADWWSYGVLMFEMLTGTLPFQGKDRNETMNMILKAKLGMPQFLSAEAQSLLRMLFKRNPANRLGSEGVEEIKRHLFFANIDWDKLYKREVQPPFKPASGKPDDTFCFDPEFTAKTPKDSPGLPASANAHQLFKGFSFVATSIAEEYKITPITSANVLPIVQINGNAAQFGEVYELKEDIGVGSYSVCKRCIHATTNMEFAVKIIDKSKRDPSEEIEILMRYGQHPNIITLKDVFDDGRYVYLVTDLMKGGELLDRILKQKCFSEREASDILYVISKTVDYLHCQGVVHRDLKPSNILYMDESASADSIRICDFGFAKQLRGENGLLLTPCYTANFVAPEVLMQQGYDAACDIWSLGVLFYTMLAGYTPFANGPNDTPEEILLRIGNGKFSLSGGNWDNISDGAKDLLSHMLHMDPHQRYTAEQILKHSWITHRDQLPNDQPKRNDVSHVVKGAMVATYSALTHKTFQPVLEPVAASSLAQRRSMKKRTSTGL
T2 sequence (O96017 whole entry): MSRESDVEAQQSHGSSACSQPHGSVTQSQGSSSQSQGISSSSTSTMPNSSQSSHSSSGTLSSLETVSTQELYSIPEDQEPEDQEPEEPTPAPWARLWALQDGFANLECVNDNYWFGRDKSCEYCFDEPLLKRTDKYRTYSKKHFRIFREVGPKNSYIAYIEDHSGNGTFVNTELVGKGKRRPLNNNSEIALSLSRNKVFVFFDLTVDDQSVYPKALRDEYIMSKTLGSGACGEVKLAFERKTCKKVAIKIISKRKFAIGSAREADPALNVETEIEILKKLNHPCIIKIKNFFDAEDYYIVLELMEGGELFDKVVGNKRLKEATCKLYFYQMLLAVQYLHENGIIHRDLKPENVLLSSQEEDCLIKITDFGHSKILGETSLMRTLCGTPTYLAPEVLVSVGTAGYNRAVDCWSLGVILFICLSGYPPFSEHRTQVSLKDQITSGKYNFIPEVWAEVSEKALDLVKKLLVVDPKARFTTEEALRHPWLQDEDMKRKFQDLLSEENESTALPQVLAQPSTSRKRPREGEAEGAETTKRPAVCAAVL
P-glycoprotein (P-gp, MDR1), sequence (P08183 whole entry): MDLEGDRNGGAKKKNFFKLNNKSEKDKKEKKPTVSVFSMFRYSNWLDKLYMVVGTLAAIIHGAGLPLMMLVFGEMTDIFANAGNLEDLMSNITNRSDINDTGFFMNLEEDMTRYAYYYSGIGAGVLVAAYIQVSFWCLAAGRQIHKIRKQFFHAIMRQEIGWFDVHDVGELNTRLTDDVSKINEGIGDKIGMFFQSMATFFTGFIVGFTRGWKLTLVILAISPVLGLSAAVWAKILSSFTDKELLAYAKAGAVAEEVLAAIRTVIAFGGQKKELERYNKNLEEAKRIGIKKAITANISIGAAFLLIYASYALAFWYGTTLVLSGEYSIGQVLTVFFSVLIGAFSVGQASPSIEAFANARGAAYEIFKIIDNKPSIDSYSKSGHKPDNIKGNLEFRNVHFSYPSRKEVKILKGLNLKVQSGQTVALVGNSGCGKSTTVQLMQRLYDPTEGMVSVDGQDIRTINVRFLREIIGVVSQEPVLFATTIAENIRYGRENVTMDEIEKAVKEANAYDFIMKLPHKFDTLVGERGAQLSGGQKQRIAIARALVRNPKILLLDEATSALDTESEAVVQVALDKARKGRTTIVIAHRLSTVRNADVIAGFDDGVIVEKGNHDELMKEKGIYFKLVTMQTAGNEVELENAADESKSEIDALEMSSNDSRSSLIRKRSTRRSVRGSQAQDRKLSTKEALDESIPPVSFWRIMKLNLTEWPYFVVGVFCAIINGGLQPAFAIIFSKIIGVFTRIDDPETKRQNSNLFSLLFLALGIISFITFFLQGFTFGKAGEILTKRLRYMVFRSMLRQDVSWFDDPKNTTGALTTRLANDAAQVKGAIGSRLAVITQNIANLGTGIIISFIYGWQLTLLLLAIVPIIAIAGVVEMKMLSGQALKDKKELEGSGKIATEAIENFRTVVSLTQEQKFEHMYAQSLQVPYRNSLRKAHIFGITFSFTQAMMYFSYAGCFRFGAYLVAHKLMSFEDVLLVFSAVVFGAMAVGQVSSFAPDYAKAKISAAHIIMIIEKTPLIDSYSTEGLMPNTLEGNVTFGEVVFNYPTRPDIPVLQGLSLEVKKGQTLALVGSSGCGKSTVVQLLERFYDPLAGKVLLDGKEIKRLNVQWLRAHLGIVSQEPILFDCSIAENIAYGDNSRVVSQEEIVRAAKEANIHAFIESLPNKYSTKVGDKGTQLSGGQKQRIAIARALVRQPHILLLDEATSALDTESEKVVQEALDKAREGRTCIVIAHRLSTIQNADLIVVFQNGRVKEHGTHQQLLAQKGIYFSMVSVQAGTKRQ

For `CN(C)CC1CN(c2cccc(-n3cnc(Nc4cnc(C#N)cn4)c3)c2)CCO1` (single isomer, unassigned) [Example 108, 5-((1-(3-(2-((Dimethylamino)methyl)morpholino)phenyl)-1H-imidazol-4-yl)amino)pyrazine-2-carbonitrile], the IC50 at human Chk1 kinase [1] lay within 10 to 31.6 nM; at human Chk2 kinase [2], 10000 to 100000 nM.
Regarding `CN(CCO)C1CCN(c2cccc(-n3cnc(Nc4cnc(C#N)cn4)c3)c2)C1` (single isomer, unassigned) [Example 110, 5-((1-(3-(3-((2-Hydroxyethyl)(methyl)amino)pyrrolidin-1-yl)phenyl)-1H-imidazol-4-yl)amino)pyrazine-2-carbonitrile], the “Chk1 pIC50” value at human Chk1 kinase [3] is on record as “D (D: 7.5-8.0)”. The compound also displayed an IC50 against human Chk2 kinase [4] of 10000 to 100000 nM.
As for `CC1(C)CN(C2CCN(c3ccc(-n4cnc(Nc5cnc(C#N)cn5)c4)cc3)C2)C1` (single isomer, unassigned) [Example 124, 5-((1-(4-(3-(3,3-Dimethylazetidin-1-yl)pyrrolidin-1-yl)phenyl)-1H-imidazol-4-yl)amino)pyrazine-2-carbonitrile], the “Chk1 pIC50” value on human Chk1 kinase [3] is listed as “D (D: 7.5-8.0)”. The compound further yielded an IC50 against human Chk2 kinase [4] of 1000 to 10000 nM.
In the case of `CC1CN(C2CCN(c3ccc(-n4cnc(Nc5cnc(C#N)cn5)c4)cc3)C2)C1` (single isomer, unassigned) [Example 126, 5-((1-(4-(3-(3-Methylazetidin-1-yl)pyrrolidin-1-yl)phenyl)-1H-imidazol-4-yl)amino)pyrazine-2-carbonitrile], the “Chk1 pIC50” value at human Chk1 kinase [3] is given as “D (D: 7.5-8.0)”. At human Chk2 kinase [4], the IC50 was above 100000 nM.
By efflux ratio is commonly meant a quotient of directional permeabilities that is used to spot active efflux. By Papp A→B is commonly meant how fast a substance crosses the layer from the apical side. Higher therefore signals ready permeation. In the case of `COc1cc(C2(F)CCN(C)CC2)ccc1-c1cc(Nc2cnc(C#N)cn2)n[nH]1` [Comparator Ex. 4, 5-((5-(4-(4-Fluoro-1-methylpiperidin-4-yl)-2-methoxyphenyl)-1H-pyrazol-3-yl)amino)pyrazine-2-carbonitrile, reference compound], the IC50 at RSK1 is 329 nM; against RSK2, 59 nM; on RSK3, 35 nM; at RSK4, 58 nM. Further, the efflux ratio at 60 min, 1 μM in [5] amounted to 16; at BCRP, 12. Also, the apical-to-basolateral permeability (Papp A→B) at 60 min, 1 μM in “in vitro” was 19 ×10⁻⁶ cm/s.
Consider `CN(C)[C@@H]1CCN(c2ccc(-n3cnc(Nc4cnc(C#N)cn4)c3)nc2)C1` [Example 50, (R)-5-((1-(5-(3-(Dimethylamino)pyrrolidin-1-yl)pyridin-2-yl)-1H-imidazol-4-yl)amino)pyrazine-2-carbonitrile], for which the IC50 against RSK1 was 4470 nM; against RSK2, 6670 nM; with GBM LN18 cells, below 1000 nM; in [6] (setting [9]), below 1000 nM; against RSK3, 1020 nM; on RSK4 it was 3140 nM. Further, in data set [7], the Kp uu at 0.25 h amounted to 0.5.
On to `C[C@@H]1C[C@@H](N2CCC2)CN1c1ccc(-n2cnc(Nc3cnc(C#N)cn3)c2)cc1` [Example 98, 5-((1-(4-((2R,4R)-4-(Azetidin-1-yl)-2-methylpyrrolidin-1-yl)phenyl)-1H-imidazol-4-yl)amino)pyrazine-2-carbonitrile], for which the IC50 on RSK1 is 3550 nM; on RSK2, 786 nM; with GBM LN18 cells, below 1000 nM; in data set [6] (setting [9]) it was below 1000 nM; at RSK3 it was 651 nM; at RSK4, 2470 nM. Further, the Kp uu at 0.25 h in data set [7] was 0.8.
Turning to `CN1CCN(c2ccc(-n3cnc(Nc4cnc(C#N)cn4)c3)cc2)CC1` [Example 143, 5-((1-(4-(4-Methylpiperazin-1-yl)phenyl)-1H-imidazol-4-yl)amino)pyrazine-2-carbonitrile], the IC50 on human Chk1 kinase [1] was 10 to 31.6 nM; on RSK1, 9450 nM; against RSK2, 3040 nM; against human Chk2 kinase [4], 10000 to 100000 nM; against RSK3, 2070 nM; at RSK4, above 10000 nM. In addition, the Kp uu at 0.25 h in data set [7] stood at 0.4. In data set [8], the “Number of 372 kinases inhibited relative to Chk1 IC50 Within 10-fold” value was 3. Further, the “Number of 372 kinases inhibited relative to Chk1 IC50 Within 100-fold” value in data set [8] is on record as 10.
`CN[C@@H]1CCN(c2ccc(-n3cnc(Nc4cnc(C#N)cn4)c3)cc2)C1` [Example 155, (R)-5-((1-(4-(3-(Methylamino)pyrrolidin-1-yl)phenyl)-1H-imidazol-4-yl)amino)pyrazine-2-carbonitrile]: the IC50 is below 10 nM on human Chk1 kinase [1]; 3420 nM against RSK1; 1120 nM against RSK2; 1000 to 10000 nM at human Chk2 kinase [4]; below 1000 nM with GBM LN18 cells; below 1000 nM in [6] (SW-620, 2 h, neocarzinostatin 7.5 μM). Also, the IC50 at RSK3 came to 822 nM; against RSK4, 1960 nM. Besides, the “Number of 372 kinases inhibited relative to Chk1 IC50 Within 10-fold” value in data set [8] worked out at 1. In addition, the “Number of 372 kinases inhibited relative to Chk1 IC50 Within 100-fold” value in [8] was 6.
`N#Cc1cnc(Nc2cn(-c3ccc(N4CCN(CCF)CC4)cc3)cn2)cn1` [Example 183, 5-((1-(4-(4-(2-Fluoroethyl)piperazin-1-yl)phenyl)-1H-imidazol-4-yl)amino)pyrazine-2-carbonitrile]: the figures for the IC50 on human Chk1 kinase [1] and at human Chk2 kinase [4] were 31.6 to 100 nM and 10000 to 100000 nM, respectively. The results for the efflux ratio at 60 min, 1 μM (in [5]; at BCRP) were 0.7 and 1.4, respectively. In “in vitro”, this compound showed a Papp A→B at 60 min, 1 μM of 84 ×10⁻⁶ cm/s.
For `N#Cc1cnc(Nc2cn(-c3ccc(N4CCN(CCC(F)(F)F)CC4)cc3)cn2)cn1` [Example 184, 5-((1-(4-(4-(3,3,3-Trifluoropropyl)piperazin-1-yl)phenyl)-1H-imidazol-4-yl)amino)pyrazine-2-carbonitrile], the IC50 against human Chk1 kinase [1] was 100 to 316 nM; on human Chk2 kinase [4], above 100000 nM. Further, the values for the efflux ratio at 60 min, 1 μM (in data set [5]; on BCRP) were 0.9 and 1.1, respectively. The apparent permeability from apical to basolateral (Papp A→B) at 60 min, 1 μM in “in vitro” was 43 ×10⁻⁶ cm/s.
